According to US10239893B2, “Controlling the isomerization rate of Azo-BF2 switches using aggregation” (THE TRUSTEES OF DARTMOUTH COLLEGE, priority 2013, dated 2019):
Several values for one entry are separate records, joined by “and”; a condition that tells them apart may be missing. Equal entries are not always repeated.

How the values were obtained:
[1] = Thermal cis→trans relaxation followed by 1H NMR in CD2Cl2; type: physicochemical; details: CD2Cl2 at 294 K, starting from PSS710
Description: Unaltered CD2Cl2 solution of compound 4 in a quartz NMR tube was irradiated at 710 nm until its photostationary state was reached.

[2] = Stability (hydrolysis) in acetonitrile:PBS buffer (1:1), followed by UV-Vis; type: physicochemical; details: acetonitrile:PBS (1:1), 25° C.
Procedure: (§1) The stability of the switches in an aqueous environment was tested by conducting multiple switching cycles (10 cycles shown in FIG. 22a) of 4 in an acetonitrile:PBS buffer (1:1) mixed solvent system. These experiments were conducted by irradiating the sample using 710 nm light, followed by thermal relaxation under dark. […] The stability of switch 4 to reduction by glutathione (GSH) was also tested. The switch was incubated in 10 mM reduced glutathione in acetonitrile:PBS buffer (1:1) solution.
All reagents and starting materials were purchased from commercial vendors and used without further purification. Column chromatography was performed on silica gel (Silicycle, 230-400 mesh). The melting points were measured on an Electrothermal 9100 instrument in open capillary tubes without thermometer correction. Deuterated solvents were purchased from Cambridge Isotope Laboratories and used as received. ^1H NMR and ^13C NMR spectra were recorded on a 500 MHz spectrometer, with working frequencies of 499.87 MHz for ^1H nuclei and 125.7 MHz for ^13C nuclei, respectively. ^19F NMR spectra were recorded on a 300 MHz spectrometer, with working frequency of 282.2 MHz for ^19F nuclei. Chemical shifts are expressed in ppm relative to tetramethylsilane, using the residual solvent peak as a reference standard. GC-MS spectra were measured on a Shimadzu Gas Chromatograph/Mass Spectrometer (GCMS-QP2010Plus). UV-Vis spectra were recorded on a Shimadzu UV-Vis spectrophotometer (UV-1800). Irradiation experiments were conducted with sufficient stirring using a Newport mercury lamp (67005-414) equipped with a Jarrell-Ash light monochromator. The 710 nm Near IR light source was built with appropriate LED light bulbs (LED710-lau AlGaAs Infrared LEDs purchased from Roithner Lasertechnik GmbH). PBS buffer is an aqueous solution prepared with 11.9 mM sodium phosphate (pH 7.3-7.4), 137 mM NaCl and 2.7 mM KCl.

[3] = Stability to reduction by glutathione, 10 mM GSH in acetonitrile:PBS buffer (1:1); type: physicochemical; details: for degradation half-life with GSH: acetonitrile:PBS (1:1) with 10 mM GSH, 25° C.
Procedure: as §1

[4] = Isomer ratios under dark and at photostationary states by 1H NMR; type: physicochemical; details: for PSS isomer ratio, cis, irradiation at 710 nm (PSS710): lowest estimation because of fast thermal relaxation
Procedure: ^1H NMR spectroscopy was employed to evaluate the photo-switching efficiency of 10 in CD2Cl2 (0.53 mM).
[…] The LEDs were affixed in a custom irradiation chamber fitted with a cooling fan to maintain ambient temperature. The light intensities at 430 and 600 nm were determined using chemical actinometry^S1 and a Thorlabs optical power meter, respectively. Photoisomerization quantum yields were measured by monitoring the proton integral change in trans/cis isomers after 430 and 600 nm irradiation for 2 and 20 s, respectively. Each quantum yield measurement was repeated three times under the same conditions. The photostationary states (PSS) were determined upon continuous irradiation until no further isomerization was observed using ^1H NMR spectroscopy. PBS buffer is an aqueous solution prepared by dissolving Na2HPO4 (1.420 g), KH2PO4 (0.245 g) NaCl (8.007 g) and KCl (0.201 g) in 1 L deionized water.

[5] = Reversibility of photoswitching over repeated irradiation cycles; type: physicochemical; details: CH2Cl2, alternating visible light irradiation
Description: The photoisomerization of Compound 1 was studied extensively by UV/vis (FIG. 1) spectroscopy. When stored in the dark, Compound 1 adopts its thermodynamically stable trans form that has an absorption maximum (λmax) at 530 nm (ε=8026 M^−1 cm^−1). Upon irradiation at 570 nm, the cis form (λmax=480 nm; £=7792 M^−1 cm^−1) becomes dominant, accompanied by a sharp color change of the solution from bright purple to light orange. The process is also accompanied by changes in the intensity of bands at higher energies (λmax=340 and 264 nm). Irradiation at 450 nm drives the system back to its trans form. […] The trans/cis isomerization can be activated solely by the use of visible light and there is no need for UV light.
The synthesis of the azo-BF2 complex 10 started from the hydrazone-based switch,^18 followed by the coupling reaction with BF3.OEt2^19 (Scheme 7). The product was fully characterized using NMR spectroscopy and mass spectrometry (FIGS. 62-76). […] Upon irradiation with a 600 nm light source, E to Z isomerization takes place (isosbestic points at 318, 406, and 508 nm) leading to a new band with a λmax at 501 nm, and e of 11209 M^−1·cm^−1 (FIGS. 58 and 81). The isomerization is accompanied with a significant color change of the solution from purple to dark orange (FIG. 58b).

[6] = Thermal cis→trans isomerization kinetics followed by UV/Vis in CH2Cl2; details: deoxygenated CH2Cl2, 294 K, starting from cis PSS, average of three measurements
Procedure: The thermal isomerization process was monitored by measuring the change in absorption intensity at 480 nm as a function of time (at 1 min intervals).
The thermal isomerization process was monitored by measuring the change in absorption intensity at 594 nm as a function of time (at 1 min intervals).

SMILES | Half-life, cis→trans thermal relaxation [1] | degradation (hydrolysis) half-life [2] | degradation half-life with GSH [3] | trans isomer ratio under dark [4] | PSS isomer ratio, cis, irradiation at 710 nm (PSS710) ([4]; CD2Cl2 at 294 K) | reversibility / degradation on repeated photoisomerization (in words) [5] | PSS isomer ratio, cis, irradiation at 640 nm (PSS640) ([4]; CD2Cl2 at 294 K) | PSS isomer ratio, trans, irradiation at 490 nm (PSS490) ([4]; CD2Cl2 at 294 K) | half-life (t1/2) of the cis→trans isomerization [6] | stability to reduction by glutathione (in words) ([3]; 10 mM reduced glutathione in acetonitrile:PBS buffer (1:1)) | PSS isomer ratio, cis, irradiation at 630 nm (PSS630) ([4]; CD2Cl2 at 294 K)
N#CC1=C2C=Cc3ccccc3N2[B-](F)(F)[N+]1=Nc1ccc(N2CCCCC2)cc1 [Compound 5] | 0.0417 h | 2 h | 2.1 h | 98% |  |  |  |  |  |  | 
N#CC1=C2C=Cc3ccccc3N2[B-](F)(F)[N+]1=Nc1ccc(N2CCOCC2)cc1 [Compound 7] | 0.25 h | 0.9 h | 1.0 h | 97% | 83% and 82±1% |  |  |  |  |  | 
N#CC1=C2C=Cc3ccccc3N2[B-](F)(F)[N+]1=Nc1ccccc1 [Compound 1] |  |  |  |  |  | no degradation |  |  |  |  | 
COc1ccc(N=[N+]2C(C#N)=C3C=Cc4ccccc4N3[B-]2(F)F)c(OC)c1 [Compound 3] |  |  |  | 58% |  |  | 79% and 79±1% | 56% and 56±1% | 13.4 h |  | 
CN1CCN(c2ccc(N=[N+]3C(C#N)=C4C=Cc5ccccc5N4[B-]3(F)F)cc2)CC1 [Compound 6] | 0.111 h | 1.2 h | 1.3 h | 94% | 49% and 49±1% |  |  |  |  |  | 
CN(C)c1ccc(N=[N+]2C(C#N)=C3C=Cc4ccccc4N3[B-]2(F)F)cc1 [Compound 4] | 0.0694 h | 2.3 h | 2.5 h | 97% | 63% and 63±1% |  |  |  |  | No obvious difference was observed in its degradation half-life | 
COc1ccc(N=[N+]2C(C#N)=C3C=Cc4ccccc4N3[B-]2(F)F)cc1 [Compound 2] |  |  |  | 93% |  |  |  | 92% and 92±1% |  |  | 96% and 96±1%
